Reference: US20250283073A1 (ORNA THERAPEUTICS, INC., priority 2021, published 2025)
Where two headings read alike, the source gives them in different places.

B1: caprine kobuvirus: "IRES sourced from the indicated virus" in circular RNA constructs "encoding anti-murine CD19 CAR" (nucleic acid)
DNA: GTGGCCACGCCCGGGCCACCGATACTTCCCTTCACTCCTTCGGGACTGTTGGGGAGGAACACAACAGGGCTCCCCTGTTTTCCCATTCCTTCCCCCTTTTCCCAACCCCAACCGCCGTATCTGGTGGCGGCAAGACACACGGGTCTTTCCCTCTAAAGCACAATTGTGTGTGTGTCCCAGGTCCTCCTGCGTACGGTGCGGGAGTGCTCCCACCCAACTGTTGTAAGCCTGTCCAACGCGTCGTCCTGGCAAGACTATGACGTCGCATGTTCCGCTGCGGATGCCGACCGGGTAACCGGTTCCCCAGTGTGTGTAGTGCGATCTTCCAGGTCCTCCTGGTTGGCGTTGTCCAGAAACTGCTTCAGGTAAGTGGGGTGTGCCCAATCCCTACAAAGGTTGATTCTTTCACCACCTTAGGAATGCTCCGGAGGTACCCCAGCAACAGCTGGGATCTGACCGGAGGCTAATTGTCTACGGGTGGTGTTTCCTTTTTCTTTTCACACAACTCTACTGCGTACAACTCACTGACTATCCACTTGCTCTGTCACG
modifications: Description of Unknown: CK1.4; Caprine Kobuvirus variant sequence
B2: CK-739 IRES: "the IRES having the sequence of SEQ ID NO: 3282"; "had a long scanning tract" (nucleic acid)
DNA: B1 DNA
modifications: Description of Unknown: CK1.4; Caprine Kobuvirus variant sequence

Tests used:
[1] = LNP particle size (Z-average) and polydispersity index by dynamic light scattering; format: physicochemical; settings: LNPs with circular RNA, named by ionizable lipid; for Z-Average(nm): in PBS pH 7.4
Protocol: The microfluidic chamber is cleaned with ethanol and neMYSIS syringe pumps are prepared by loading a syringe with the RNA solution and another syringe with the ethanolic lipid. Both syringes are loaded and under the control of neMESYS software. The solutions are then applied to the mixing chip at an aqueous to organic phase ratio of 2 and a total flow rate of 22 ml/min (14.67 ml/min for RNA and 7.33 ml/min for the lipid solution. Both pumps are started synchronously. The mixer solution that flowed from the microfluidic chip is collected in 4×1 ml fractions with the first fraction being discarded as waste. The remaining solution containing the circRNA-transfer vehicles is exchanged by using G-25 mini desalting columns to 10 mM Tris-HCl, 1 mM EDTA, at pH 7.5, as described above. Following buffer exchange, the materials are characterized for size, and RNA entrapment through DLS analysis and Ribogreen assays, respectively.
(§1) Dialyzed LNPs were filtered using 0.2 μm filter. Prior to in vivo dosing, LNPs were diluted in PBS. LNP sizes were determined by dynamic light scattering. A cuvette with 1 mL of 20 μg/mL LNPs in PBS (pH 7.4) was measured for Z-average using the Malvern Panalytical Zetasizer Pro. The Z-average and polydispersity index were recorded.
as §1

[2] = RNA encapsulation / entrapment by Ribogreen assay; format: physicochemical; settings: LNPs with circular RNA, named by ionizable lipid
Protocol: A QUANT-ITT- RIBOGREEN® RNA assay (Invitrogen Corporation Carlsbad, CA) can be used to evaluate the encapsulation of circRNA by the nanoparticle composition. The samples are diluted to a concentration of approximately 5 μg/mL or 1 μg/mL in a TE buffer solution (10 mM Tris-HCl, 1 mM EDTA, pH 7.5). 50 μL of the diluted samples are transferred to a polystyrene 96 well plate and either 50 μL of TE buffer or 50 μL of a 2-4% Triton X-100 solution is added to the wells. The plate is incubated at a temperature of 37° C. for 15 minutes. The RIBOGREEN® reagent is diluted 1:100 or 1:200 in TE buffer, and 100 μL of this solution is added to each well. The fluorescence intensity can be measured using a fluorescence plate reader (Wallac Victor 1420 Multilabel Counter; Perkin Elmer, Waltham, MA) at an excitation wavelength of, for example, about 480 nm and an emission wavelength of, for example, about 520 nm. The fluorescence values of the reagent blank are subtracted from that of each of the samples and the percentage of free circRNA is determined by dividing the fluorescence intensity of the intact sample (without addition of Triton X-100) by the fluorescence value of the disrupted sample (caused by the addition of Triton X-100). C.
For transfer vehicle compositions including RNA, a QUANT-IT- RIBOGREEN® RNA assay (Invitrogen Corporation Carlsbad, CA) can be used to evaluate the encapsulation of RNA by the transfer vehicle composition. […] The fluorescence intensity can be measured using a fluorescence plate reader (Wallac Victor 1420 Multilablel Counter; Perkin Elmer, Waltham, MA) at an excitation wavelength of, for example, about 480 nm and an emission wavelength of, for example, about 520 nm. The fluorescence values of the reagent blank are subtracted from that of each of the samples and the percentage of free RNA is determined by dividing the fluorescence intensity of the intact sample (without addition of Triton X-100) by the fluorescence value of the disrupted sample (caused by the addition of Triton X-100). […]

[3] = In vivo FLuc expression by IVIS (whole body and organs) after LNP-circRNA dosing; design: species or system CD-1 or c57BL/6J mice; settings: mice, 0.5 mg/kg luciferase circRNA LNP i.v., named by ionizable lipid
Protocol: Circular or linear RNA encoding FLuc was generated and loaded into transfer vehicles with the following formulation: 50% ionizable Lipid 10b-15 represented by
10% DSPC, 1.5% PEG-DMG, 38.5% cholesterol. CD-1 mice were dosed at 0.2 mg/kg and luminescence was measured at 6 hours (live IVIS) and 24 hours (live IVIS and ex vivo IVIS). Total Flux (photons/second over a region of interest) of the liver, spleen, kidney, lung, and heart was measured (FIGS. 25 and 26).
Female CD-1 or female c57BL/6J mice ranging from 22-25 g were dosed at 0.5 mg/kg RNA intravenously. Six hours after injection, mice were injected intraperitoneally with 200 μL of D-luciferin at 15 mg/mL concentration. 5 minutes after injection, mice were anesthetized using isoflurane, and placed inside the IVIS Spectrum In Vivo Imaging System (Perkin Elmer) with dorsal side up. Post 10 minutes injection, mice were scanned for luminescence. Mice were euthanized and organs were extracted within 25 minutes of luciferin injection to scan for luminescence in liver, spleen, kidneys, lungs, and heart. Images (FIGS. 33A-B, 34A-B, 35A-B) were analyzed using Living Images (Perkin Elmer) software. Regions of interest were drawn to obtain flux and average radiance and analyzed for biodistribution of protein expression (FIG. 32A-B).

splenic immune cells = test: Cre circRNA LNP transfection of splenic immune cells in Ai9 Cre reporter mice (tdTomato); format: in vivo; settings: 0.5 mg/kg Cre circRNA LNP i.v., 48 hr, named by ionizable lipid
Protocol: Circular RNAs encoding Cre recombinase (Cre) are encapsulated into lipid nanoparticles as previously described. Female, 6-8 week old B6.Cg-Gt(ROSA)26Sortm9(CAG-tdTomato)Hze/J (Ai9) mice were dosed with lipid nanoparticles at 0.5 mg/kg RNA intravenously. Fluorescent tdTomato protein was transcribed and translated in Ai9 mice upon Cre recombination, meaning circular RNAs have been delivered to and translated in tdTomato+ cells. After 48 hr, mice were euthanized and the spleens were harvested, processed into a single cell suspension, and stained with various fluorophore-conjugated antibodies for immunophenotyping via flow cytometry.
Ai9 mice (B6.Cg-Gt(ROSA)26Sortm9(CAG-tdTomato)Hze/J, female, 6-8 weeks, n=3 per group) were injected i.v. with 0.5 mg/kg Cre circRNA LNPs or PBS. Ai9 mice transcribe and translate the fluorescent reporter tdTomato upon Cre recombination; meaning cells which are tdTomato+ have successfully been transfected with Cre circRNA. […] Flow cytometry was performed using an Attune Nxt Flow Cytometer (Thermo).

[4] = cited from earlier work
1C1C7 cells [5] = test: Anti-murine CD19 CAR expression in lipotransfected 1C1C7 cells; format: cell-based; settings: 24 hours after lipotransfection, circRNA named by IRES source virus
Protocol: After 24 hours, 1C1C7 cells were incubated with His-tagged recombinant murine CD19 (Sino Biological) protein, then stained with a secondary anti-His antibody. Afterwards, the cells were analyzed via flow cytometry.

1C1C7 cells [6] = test: Gaussia luciferase expression and stability by IRES in 1C1C7 cells; settings: 1C1C7, 24 and 48 hours

| Molecule | PDI [1] | Z-Average(nm) [1] | RNA Entrapment(%) [2] | also measured |
| --- | --- | --- | --- | --- |
| CCCCCCCCC(CCCCCC)C(=O)OCCCCCCN(CCCCCCOC(=O)C(CCCCCC)CCCCCCCC)CCCn1ccnc1 (centres unmarked) [Lipid 10a-26, ((3-(1H-imidazol-1-yl)propyl)azanediyl)bis(hexane-6,1-diyl) bis(2-hexyldecanoate)] | 0.04 | 84 nm | 96% | whole-body total flux (IVIS) ([3]; 6 hours): increased whole-body total flux; ex vivo IVIS tissue expression and spleen to liver ratio [3]: increased overall expression |
| CCCCCCCCCOC(=O)CCCCCCCN(CCO)CCCCCCCC(=O)OC(CCCCCCCC)CCCCCCCC [Lipid 10b-15] |  |  |  | splenic immune cells expressing tdTomato (splenic immune cells): effective at delivering circular RNAs to many splenic immune cell subsets; ex vivo IVIS tissue expression and spleen to liver ratio [3]: maintaining the desired spleen to liver ratios |
| CCCCCCCCOC(=O)CCCCCCCCCN(CCCCCCCCCC(=O)OCCCCCCCC)CCN(C)C [Lipid I-13] |  |  |  | pKa ([4]; Table 1, Representative Lipids of Formula I): 6.15 |
| CCCCCCCCCCCCCCSCCOC(=O)CCN(CCCn1ccnc1)CCC(=O)OCCSCCCCCCCCCCCCCC [Lipid 93-S14, bis(2-(tetradecylthio)ethyl) 3,3′-((3-(1H-imidazol-1-yl)propyl)azanediyl)dipropionate] | 0.04 | 74 nm | 95% |  |
| CCCCCCCCC(CCCCCCCC)COC(=O)CCCCN(CCCCO)CCCCC(=O)OCC(CCCCCCCC)CCCCCCCC [III-15] |  |  |  | pKa ([4]; Table 3, Representative Compounds of Formula (III)): 6.14 |
| CCCCCCCCCCCCCCSCCOC(=O)CCN(CCCn1ccnc1C)CCC(=O)OCCSCCCCCCCCCCCCCC [Lipid 22-S14, bis(2-(tetradecylthio)ethyl) 3,3′-((3-(2-methyl-1H-imidazol-1-yl)propyl)azanediyl)dipropionate] | 0.05 | 64 nm | 97% |  |
| B1 |  |  |  | anti-mouse CD19 CAR expression (1C1C7 cells [5]): capable of driving expression of an anti-mouse CD19 CAR |
| B2 |  |  |  | expression after terminal or scanning tract deletions of the IRES (1C1C7 cells [6]): relatively unaffected by deletions in the scanning tract |
